Test [1] is described as follows: Luminescence Cell-Based Dose Confirmation HTS to Identify Activators of 5'UTR Stem-Loop Driven Alpha-Synuclein mRNA Translation in H4 Neuroglioblastoma Cells. [Related pubchem assays: 1829 (Project Summary), 1814 (Primary HTS)]. It counts as functional.
A short description of test [2]: Luminescence Cell-Based Dose Response HTS to Identify Activators of Luciferase Translation or Activity in H4 […] Cells. [Related pubchem assays: 1829 (Project Summary), 1814 (Primary HTS)]. Format: functional.
The test system of test [3] is H4. In words: Luminescence Cell-Based Dose Response HTS to Identify Activators of 5'UTR Stem-Loop Driven Prion Protein mRNA Translation in H4 Neuroglioblastoma Cells. [Related pubchem assays: 1829 (Project Summary), 1814 (Primary HTS)]. Conditions: Homo sapiens. Format: functional.
In test [4] the target is T1, Corticotropin-releasing factor receptor 2/Corticotropin-releasing factor-binding protein (Homo sapiens, UniProt P24387+Q13324).
T1 sequence (Q13324 whole entry): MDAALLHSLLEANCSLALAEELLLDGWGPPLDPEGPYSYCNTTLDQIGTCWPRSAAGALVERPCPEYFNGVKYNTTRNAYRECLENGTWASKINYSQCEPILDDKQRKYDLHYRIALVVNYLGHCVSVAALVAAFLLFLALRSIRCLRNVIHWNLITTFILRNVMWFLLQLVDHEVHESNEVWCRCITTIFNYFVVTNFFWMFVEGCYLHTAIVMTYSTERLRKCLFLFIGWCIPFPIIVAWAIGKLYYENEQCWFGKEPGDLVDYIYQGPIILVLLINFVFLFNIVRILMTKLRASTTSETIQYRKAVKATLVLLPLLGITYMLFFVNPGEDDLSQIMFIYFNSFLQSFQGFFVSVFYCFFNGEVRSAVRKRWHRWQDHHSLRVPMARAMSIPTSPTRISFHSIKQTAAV
T1 sequence (P24387 whole entry): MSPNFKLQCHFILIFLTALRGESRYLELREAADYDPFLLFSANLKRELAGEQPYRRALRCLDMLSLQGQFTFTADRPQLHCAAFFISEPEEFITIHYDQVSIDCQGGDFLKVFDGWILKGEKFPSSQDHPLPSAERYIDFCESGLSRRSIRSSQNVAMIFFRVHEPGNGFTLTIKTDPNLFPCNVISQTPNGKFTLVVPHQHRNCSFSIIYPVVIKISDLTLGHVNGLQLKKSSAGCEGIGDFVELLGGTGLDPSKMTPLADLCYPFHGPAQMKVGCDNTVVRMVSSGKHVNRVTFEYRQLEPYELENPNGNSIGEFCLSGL
The experiment in a line: Dose Response confirmation of uHTS hits for small molecule antagonists of the CRF-binding protein and CRF-R2 receptor complex. It counts as functional. The following applies: read-out: IC50_Mean.

Test [5] concerns the target T1, Corticotropin-releasing factor receptor 2/Corticotropin-releasing factor-binding protein. In words: activators of CRF receptor 2 with binding protein – uHTS hits, confirmation (AID 602473). The following applies: read-out: EC50_Mean. It counts as functional.
Test [6] addresses T2, Replicative DNA helicase DnaB (Mycobacterium tuberculosis, UniProt P9WMR3).
T2 sequence (P9WMR3 whole entry): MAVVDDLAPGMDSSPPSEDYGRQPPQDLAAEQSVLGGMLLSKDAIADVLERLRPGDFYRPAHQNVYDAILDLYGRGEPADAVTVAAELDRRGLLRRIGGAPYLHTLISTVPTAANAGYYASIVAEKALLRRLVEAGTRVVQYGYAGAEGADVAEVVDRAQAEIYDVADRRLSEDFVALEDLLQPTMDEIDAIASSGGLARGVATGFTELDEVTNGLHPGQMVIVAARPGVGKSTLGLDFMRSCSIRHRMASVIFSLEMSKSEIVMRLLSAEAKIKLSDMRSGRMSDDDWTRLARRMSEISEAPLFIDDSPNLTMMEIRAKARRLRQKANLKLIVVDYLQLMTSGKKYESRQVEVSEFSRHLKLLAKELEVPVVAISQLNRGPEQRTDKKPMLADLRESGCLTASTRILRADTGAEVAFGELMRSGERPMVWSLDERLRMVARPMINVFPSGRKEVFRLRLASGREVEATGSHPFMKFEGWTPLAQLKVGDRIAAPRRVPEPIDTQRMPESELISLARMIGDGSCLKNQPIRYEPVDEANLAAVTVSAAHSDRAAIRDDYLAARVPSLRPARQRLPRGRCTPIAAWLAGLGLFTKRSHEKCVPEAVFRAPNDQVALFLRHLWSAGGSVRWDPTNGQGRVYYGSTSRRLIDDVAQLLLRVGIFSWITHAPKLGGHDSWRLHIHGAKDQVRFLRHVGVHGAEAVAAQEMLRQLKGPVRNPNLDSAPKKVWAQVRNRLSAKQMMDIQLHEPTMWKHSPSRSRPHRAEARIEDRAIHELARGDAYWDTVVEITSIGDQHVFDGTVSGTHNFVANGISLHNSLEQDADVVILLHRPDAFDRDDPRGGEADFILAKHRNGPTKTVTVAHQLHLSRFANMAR
The experiment in a line: DnaB intein splicing inhibitors, dose response, biochemical, cell-free fluorescence (AID 449749). Format: functional.

The target of test [7] is T3, Protein RecA (Mycobacterium tuberculosis, UniProt P9WHJ3).
T3 sequence (P9WHJ3 whole entry): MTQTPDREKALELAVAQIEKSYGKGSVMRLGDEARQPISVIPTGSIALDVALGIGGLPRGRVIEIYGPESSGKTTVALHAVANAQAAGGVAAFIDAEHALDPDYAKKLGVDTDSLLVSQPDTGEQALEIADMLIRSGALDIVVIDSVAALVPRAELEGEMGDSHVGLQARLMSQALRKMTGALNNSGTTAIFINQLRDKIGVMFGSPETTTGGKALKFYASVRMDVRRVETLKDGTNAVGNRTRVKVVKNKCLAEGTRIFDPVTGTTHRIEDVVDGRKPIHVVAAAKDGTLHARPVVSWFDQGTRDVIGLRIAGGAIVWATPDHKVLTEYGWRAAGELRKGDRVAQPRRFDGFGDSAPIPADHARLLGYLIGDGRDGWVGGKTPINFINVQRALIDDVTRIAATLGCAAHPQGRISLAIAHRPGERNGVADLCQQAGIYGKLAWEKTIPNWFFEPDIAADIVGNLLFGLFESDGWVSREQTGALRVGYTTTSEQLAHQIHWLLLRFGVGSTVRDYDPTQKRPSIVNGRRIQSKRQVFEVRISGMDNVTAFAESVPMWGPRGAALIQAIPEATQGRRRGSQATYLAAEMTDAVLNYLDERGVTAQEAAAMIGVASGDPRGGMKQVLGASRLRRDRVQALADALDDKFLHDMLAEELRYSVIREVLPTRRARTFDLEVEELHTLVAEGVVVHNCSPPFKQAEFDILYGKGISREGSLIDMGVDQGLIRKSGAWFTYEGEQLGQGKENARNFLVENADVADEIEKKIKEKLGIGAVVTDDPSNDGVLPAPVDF
In words: Fluorescence Cell-Free Homogeneous Dose Retest to Identify Inhibitors of RecA-Intein Splicing Activity. [Related pubchem assays (depositor defined):AID2097, AID2223, AID489010, AID492950]. Format: functional.

Test [8] in a line: inhibitors of intracellular T. cruzi replication, confirmation, NIH3T3 host cells, beta-gal luminescence (AID 2044).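 Note: intracellular parasites grown in NIH/3T3 mouse fibroblasts as host cells; luminescent beta-galactosidase reporter signal from transgenic T. cruzi replicating inside host cells; inhibitors lower the luminescence signal.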 It counts as functional, cell-based.
The nature of test [9]: cytotoxicity toward NIH3T3 fibroblasts, dose response, counter-screen, cell-based, ATP luminescence, mouse fibroblasts (AID 2010).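 Note: cells exposed to compound for about 90 hours before reading.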 It counts as functional. On the technique in general: A counterscreen serves to expose hits that act by an unwanted route or on another target.
The nature of test [10]: cells. It counts as functional.

Structures can show the parent of a compound that is named as a salt. Calls of active or inactive are those of the source. Cut-off read from the data, not from the text of the source, for most assays here: actives have a measured EC50 and inactives only a lower limit. A value given as a limit tells only on which side of the number the result lay.

In the case of `Cc1nc(-c2ccccc2)nc2[nH]c(=O)n(-c3ccccc3)c(=O)c12`, the figures for the EC50 in [1], in test [2] and in [3] were 16.6 µM (active), 8.63 µM (active) and > 120 µM (not active), respectively.
For the compound `NC(=O)CS(=O)(=O)c1nc2ccccc2n1Cc1ccccc1F`, the IC50 in [4] was > 47.1 µM (inactive). Moreover, the EC50 in test [5] is > 53 µM (inactive).
Consider `CCN(CC)C(=O)CCc1nnc(Cc2cccc(C(F)(F)F)c2)o1`, for which the EC50 in test [1] is 12.5 µM (active); in test [2], 14.5 µM (active); in test [3], > 120 µM (not active).
As to `COc1ccc(Oc2nccc(-c3ccccc3)c2C#N)cc1`, the figures for the EC50 in test [2], in test [3] and in test [5] were 9.77 µM (active), 11.8 µM (active) and > 53 µM (inactive), respectively. Also, the IC50 in test [4] is 30.7 µM (active).
As for `Cc1cc(NC(=O)Cc2ccccc2)ccc1NC(=O)c1cccs1`, the IC50 in test [4] was > 47.1 µM (inactive). The EC50 in [5] is > 53 µM (inactive).
As to `Cc1ccc(C(=O)O/N=C(\N)Cc2ccc([N+](=O)[O-])cc2)c(Cl)c1`, the figures for the EC50 in [1], in test [2] and in test [3] were > 120 µM (not active), > 120 µM (not active) and 28.6 µM (active), respectively.
Regarding `O=C(c1ccc(N2CCNCC2)cc1)c1cccnc1`, in test [4], the IC50 was > 47.1 µM (inactive). In [5], the EC50 was > 53 µM (inactive).
For the compound `CCCc1n[nH]c2c1C(CCC)C(C#N)=C(N)O2` (stereo not given), the AC50 in [6] was 20.5 µM (active). The EC50 in [7] was 7.46 µM (active).
In the case of `O=C(Oc1ccccc1C(=O)Nc1ccccc1)c1ccccc1Br`, the half-maximal activity concentration (AC50) in test [6] is 7.25 µM (active). Also, in test [7], the EC50 was 8.13 µM (active).
Regarding `O=C(CSc1ncnc2ccccc12)c1ccc2c(c1)OCCO2`, the EC50 is 12.9 µM (active) in test [1], 90.6 µM (active) in [2] and > 120 µM (not active) in test [3].
In the same order, the values of `Fc1cccc(CSc2nc3cc[nH]cc-3n2)c1` are 39.2 µM (active), 38.2 µM (active) and 19.2 µM (active).
In the case of `COc1ccc(NC(=O)CN2CCCC2c2cccs2)cc1S(=O)(=O)N1CCCCC1` (stereo not given), the IC50 in test [4] was > 47.1 µM (inactive). Further, the EC50 in test [5] was > 53 µM (inactive).
For `CC(Nc1ccc(Br)cc1)C(=O)Nc1cccc(S(=O)(=O)N2CCOCC2)c1` (stereo not given), in that order: > 47.1 µM (inactive) and > 53 µM (inactive).
Regarding `COc1ccc(CNC(=O)C(c2ccc(C)o2)N(C(=O)c2snc(C(N)=O)c2N)c2ccccc2OC)cc1` (stereo not given), the AC50 in test [6] was > 380 µM (inactive). Further, the EC50 in [7] was > 380 µM (inactive).
With `CCN1CCN(C(=O)c2ccc3c(=O)n(CCc4ccccc4)c(=O)[nH]c3c2)CC1`, the values for the EC50 in test [1], in [2] and in test [3] were 107 µM (active), 63.3 µM (active) and 10.2 µM (active), respectively.
As for `CCOC(=O)c1nnc(-c2ccccc2)nc1N1CC(C)OC(C)C1` (stereo not given), the IC50 in test [4] was > 47.1 µM (inactive). The EC50 in test [5] was > 53 µM (inactive).
For `c1ccc2c(COn3nnc4ccccc43)cccc2c1`, the figures for the EC50 in test [1], in test [2] and in [3] were 28.7 µM (active), > 120 µM (not active) and > 120 µM (not active), respectively.
Regarding `COc1ccccc1NS(=O)(=O)c1ccc(N/N=C/c2c(C)nn(-c3ccccc3)c2N2CCCC2)c([N+](=O)[O-])c1`, the figures for the EC50 in test [8], in test [9] and in test [5] were 0.501 µM (active), > 60 µM (not active) and > 53 µM (inactive), respectively. Also, the IC50 in [4] was > 47.1 µM (inactive).
As for `O=C(Nc1cc(C(F)(F)F)ccc1-n1cncn1)c1ccc(Cl)cc1`, in [4], the IC50 was > 47.1 µM (inactive). The EC50 in test [5] was > 53 µM (inactive).
As to `COc1cc(/C=N\NC(=O)c2ccccc2F)ccc1Oc1ccc([N+](=O)[O-])cn1`, the concentration at half-maximal activity (AC50) in [6] is 133 µM (active). The EC50 in [7] was > 380 µM (inactive).
For the compound `Cc1nnc(N/N=C/c2cccc(OCc3ccc(Cl)c(Cl)c3)c2)n1N`, in test [10], the IC50 is 5.42 µM (active). Besides, the half-maximal activity concentration (AC50) in [6] is 8.86 µM (active). Moreover, the EC50 in test [7] was 4.81 µM (active).
Take `Cc1cc(N2CCN(C)CC2)nc2ccc(NC(=O)CCC(=O)NCCCOC(C)C)cc12`: the IC50 in test [4] was > 47.1 µM (inactive). Also, in test [5], the EC50 is > 53 µM (inactive).
Consider `CCCn1c(=O)c2ccccc2n2c(SCc3nc4ccccc4s3)nnc12`, for which the EC50 in test [1] was 0.359 µM (active); in [2], 29.2 µM (active); in test [3] it was 5.47 µM (active).
As for `Cn1cccc1C(=O)OCC(=O)Nc1ccc2c(c1)CCC2`, the results for the EC50 in test [1], in test [2] and in test [3] were 6.37 µM (active), 14.5 µM (active) and 47.9 µM (inconclusive), respectively.
Consider `C/C(=N\NC(=O)CC#N)c1cc2ccccc2oc1=O`, for which, in [6], the half-maximal activity concentration (AC50) was 3.44 µM (active). The EC50 in test [7] was 2.97 µM (active).
Take `COc1ccc(CNC(=O)CCc2nc3cc(S(=O)(=O)N(C)C)ccc3n2C)cc1OC`: the IC50 in [4] is > 47.1 µM (inactive). The EC50 in [5] is > 53 µM (inactive).
Regarding `CCOc1c(C)cc(-c2ncccc2O)cc1C`, in test [4], the IC50 is > 47.1 µM (inactive). The EC50 in [5] is > 53 µM (inactive).
In the same order, the values of `O=C(O)C1=CCCNC1` [GUVACINE HYDROCHLORIDE] are > 47.1 µM (inactive) and > 53 µM (inactive).

Usually AC50 stands for the concentration at which the activity in the assay is half-maximal.
